Measured values reported in patent publication US11426454B2 (priority 2018, dated 2022).

Test system: live BCG bacteria
Format: in vivo, C57BL/6 mice
Details: 0.1 mL (approximately 10^6 CFU/mL) under the armpits; isoniazid by gavage; 2×10^6 live BCG challenge one week later; week 4

NNC(=O)c1ccncc1 [Isoniazid, isoniazid]
Colony count of lung tissues (CFU): 34000 ± 13115 CFU | Colony count of spleen tissues (CFU): 6733 ± 2969 CFU
